Results: ChEMBL document CHEMBL1201862, “PubChem BioAssay data set” (2004)
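Briefly, cells in 96-well plates were exposed to five compound concentrations for 48 h, and endpoints were estimated by linear interpolation. Here, GI50 denotes the concentration required for 50% inhibition of growth.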 Active and inactive are the calls of the source. Rule as the data show it: active = GI50 up to about 1.1 µM and inactive = higher.

What was measured:
Assay in all cases: inhibition of tumour cell growth, NCI panel, 48 h
OVCAR-8 = test system: OVCAR-8
UACC-257 = test system: UACC-257
SN12C = test system: SN12C
SK-MEL-28 = test system: SK-MEL-28
HCT-15 = test system: HCT-15
NCI-H23 = test system: NCI-H23
RXF 393 = test system: RXF 393
SF-268 = test system: SF-268
HOP-62 = test system: HOP-62
OVCAR-5 = test system: OVCAR-5
HCC 2998 = test system: HCC 2998
SF-539 = test system: SF-539
T47D = test system: T47D
ACHN = test system: ACHN
M14 = test system: M14
SNB-75 = test system: SNB-75
OVCAR-4 = test system: OVCAR-4
MDA-N = test system: MDA-N
MOLT-4 = test system: MOLT-4
LOX IMVI = test system: LOX IMVI
NCI/ADR-RES = test system: NCI/ADR-RES
SK-MEL-2 = test system: SK-MEL-2
COLO 205 = test system: COLO 205
NCI-H460 = test system: NCI-H460
HCT-116 = test system: HCT-116
OVCAR-3 = test system: OVCAR-3
SF-295 = test system: SF-295
A498 = test system: A498
PC-3 = test system: PC-3
DU-145 = test system: DU-145
NCI-H226 = test system: NCI-H226
EKVX = test system: EKVX
CCRF-CEM = test system: CCRF-CEM
A549 = test system: A549
UACC-62 = test system: UACC-62
MDA-MB-231 = test system: MDA-MB-231
KM12 = test system: KM12
K562 = test system: K562
NCI-H522 = test system: NCI-H522
SK-MEL-5 = test system: SK-MEL-5
CAKI-1 = test system: CAKI-1
U-251 = test system: U-251
Hs-578T = test system: Hs-578T
HT-29 = test system: HT-29
TK-10 = test system: TK-10
Malme-3M = test system: Malme-3M
MCF7 = test system: MCF7
HL-60 = test system: HL-60
SW-620 = test system: SW-620
786-0 = test system: 786-0
RPMI-8226 = test system: RPMI-8226
SR = test system: SR
MDA-MB-435 = test system: MDA-MB-435
HOP-92 = test system: HOP-92
SNB-19 = test system: SNB-19
SK-OV-3 = test system: SK-OV-3
IGROV-1 = test system: IGROV-1
UO-31 = test system: UO-31

Measured: GI50

CCCCCCCCNC(=S)N/C=C1\C(=O)Oc2ccccc2C1=O
12.2 µM: HCT-15
inactive: OVCAR-8 19.5 µM | UACC-257 19.1 µM | SN12C 19.8 µM | SK-MEL-28 16.1 µM | NCI-H23 21.1 µM | RXF 393 16 µM | SF-268 10 µM | HOP-62 13.5 µM | OVCAR-5 12.6 µM | HCC 2998 11.4 µM | SF-539 17.6 µM | T47D 65.8 µM | ACHN 14.8 µM | M14 19.3 µM | SNB-75 14.2 µM | OVCAR-4 13.2 µM | MDA-N 18.1 µM | MOLT-4 12.4 µM | LOX IMVI 7.05 µM | NCI/ADR-RES 19 µM | SK-MEL-2 22.5 µM | COLO 205 15 µM | NCI-H460 14.4 µM | HCT-116 15.6 µM | OVCAR-3 12.6 µM | SF-295 14.1 µM | A498 16 µM | PC-3 14.4 µM | DU-145 19.2 µM | NCI-H226 23.8 µM | EKVX 28.2 µM | CCRF-CEM 11.1 µM | A549 17.2 µM | UACC-62 6.85 µM | MDA-MB-231 15.9 µM | KM12 13.6 µM | K562 16.3 µM | NCI-H522 7.19 µM | SK-MEL-5 15.3 µM

CC(=O)OCC1OC(O[C@@H]2C[C@H]3C(C)(C)[C@H](OC(C)=O)CC[C@]3(C)[C@H]3CC[C@@H]4[C@]5(CC[C@@]4(C)[C@@]32C)O[C@@H]([C@H](O)C(C)(C)O)C[C@@H]5C)C(O)C(O)C1O (some centres undefined)
inactive: CAKI-1 3.23 µM | RXF 393 4.4 µM | U-251 6.05 µM

Cc1ncc([N+](=O)[O-])n1CCn1ccnc1[N+](=O)[O-]
> 100 µM: HCT-15
inactive: Hs-578T > 100 µM | OVCAR-8 34.8 µM | UACC-257 > 100 µM | HT-29 > 100 µM | SN12C 61.7 µM | SK-MEL-28 > 100 µM | TK-10 15.7 µM | NCI-H23 > 100 µM | Malme-3M 72.1 µM | SF-268 > 100 µM | HOP-62 > 100 µM | OVCAR-5 > 100 µM | HCC 2998 > 100 µM | MCF7 > 100 µM | U-251 > 100 µM | SF-539 > 100 µM | ACHN > 100 µM | HL-60 > 100 µM | SNB-75 > 100 µM | SW-620 74.6 µM | MOLT-4 > 100 µM | SK-MEL-2 58.6 µM | NCI-H460 > 100 µM | HCT-116 > 100 µM | OVCAR-3 > 100 µM | 786-0 > 100 µM | SF-295 > 100 µM | A498 61.9 µM | PC-3 80.9 µM | RPMI-8226 > 100 µM | NCI-H226 > 100 µM | EKVX 35.2 µM | CCRF-CEM > 100 µM | A549 54.2 µM | SR > 100 µM | KM12 > 100 µM | K562 > 100 µM | NCI-H522 > 100 µM | SK-MEL-5 38.3 µM

CCOC(=O)c1csc(NC(=O)CN2CCCCC2)n1
inactive: Hs-578T > 100 µM | OVCAR-8 > 100 µM | UACC-257 > 100 µM | HT-29 > 100 µM | MDA-MB-435 > 100 µM | SK-MEL-28 > 100 µM | TK-10 > 100 µM | CAKI-1 > 100 µM | NCI-H23 > 100 µM | RXF 393 > 100 µM | SF-268 > 100 µM | HOP-62 > 100 µM | OVCAR-5 > 100 µM | HCC 2998 > 100 µM | HOP-92 > 100 µM | MCF7 > 100 µM | U-251 > 100 µM | SF-539 > 100 µM | SNB-19 > 100 µM | T47D > 100 µM | ACHN > 100 µM | M14 > 100 µM | HL-60 > 100 µM | SNB-75 > 100 µM | SW-620 > 100 µM | OVCAR-4 > 100 µM | MDA-N > 100 µM | MOLT-4 > 100 µM | LOX IMVI > 100 µM | SK-OV-3 > 100 µM | NCI/ADR-RES > 100 µM | SK-MEL-2 > 100 µM | COLO 205 > 100 µM | NCI-H460 > 100 µM | IGROV-1 > 100 µM | OVCAR-3 > 100 µM | SF-295 > 100 µM | A498 > 100 µM | PC-3 > 100 µM | RPMI-8226 > 100 µM | DU-145 > 100 µM | EKVX > 100 µM | CCRF-CEM > 100 µM | A549 > 100 µM | UACC-62 > 100 µM | MDA-MB-231 > 100 µM | KM12 > 100 µM | K562 > 100 µM | UO-31 > 100 µM | SK-MEL-5 > 100 µM
> 100 µM: HCT-15
